The record followed here is patent US4665088A, “(E-Z)-4,5,9-trithiadodeca-1,6,11-triene 9-oxides” (The Research Foundation of State University of New York, priority 1984, dated 1987).

The structures appear in SMILES notation. Like-named read-outs stand apart in the source and are kept apart here.

Assay type in all cases: cell-based
Assay [1] has as its system collagen-induced platelet aggregation (platelet rich, citrated, human blood plasma). Briefly: Inhibition of collagen-induced aggregation of platelets in platelet rich, citrated human blood plasma. The source says: (§1) Though the compounds of this invention have multiple uses such as for example as bacteriocides and fungicides, a particularly important utility is as an antithrombotic agent. Various chemicals are known to cause blood platelets to aggregate which in turn can result in blood clots in the blood circulatory system of living systems. Certain other compounds are known to prevent blood platelet aggregation and accordingly are known herein as antithrombotic agents, while other compounds prevent clotting of aggregated platelets and are called anticoagulants. Both are used in the treatment of phlebitis, stroke, coronary thrombosis and arteriosclerosis. In a typical test to determine antithrombotic activity, the suspected antithrombotic chemical is mixed with a suspension of blood platelets, incubated for a few minutes, and then the suspension is treated with a known amount of a known agonist (agent inducing aggregation). The effectiveness of the suspected antithrombotic is compared to a control which has been treated with the agonist but which has not been treated with the antithrombotic and a quantitative measure of effectiveness is determined by ascertaining the concentration of suspected antithrombotic necessary to reduce by 50% the extent of platelet aggregation compared to the control. This measurement is termed the ID50 of the antithrombotic. Typical agonists include collagen and ADP (adenosine diphosphate).
Platelet rich, citrated, human blood plasma (250,000 platelets/μL) was prepared and divided into 0.45 ml. aliquots for use in determining ID50 levels of the subject compounds. The aliquots were treated with various quantities of (E)-ajoene, (Z)-ajoene, mixed (E,Z)-ajoene and mixed (E,Z)-ajoene together with prostacyclin and indomethacin. A control was maintained free of antithrombotic. The thus treated aliquots were pre-incubated by maintaining in an aggregometer cuvette for 2 minutes at 37° C. with stirring (950 RPM). Each aliquot was then further treated with an appropriate amount of ADP (10 μmole) or collagen (1 μg/ml or 2 μg/ml). Aggregation in each aliquot was monitored for a period of 3-5 minutes and percentage aggregation was quantitated by a dual channel aggregometer which ascertained percent aggregation by comparison against a control of light transmittance through the sample.

In assay [2] the test system is ADP-induced platelet aggregation (platelet rich, citrated, human blood plasma). Briefly: Inhibition of ADP-induced aggregation of platelets in platelet rich, citrated human blood plasma. Particulars: ADP (10 μmole), read-out: ID50 (the source's name).
Text: as §1, with “In a typical test to determine antithrombotic activity, the suspected antithrombotic chemical is mixed with a suspension of blood platelets, incubated for a few minutes, and then the suspension is treated with a known amount of a known agonist (agent inducing aggregation).” left out, “This measurement is termed the ID50 of the antithrombotic. Typical agonists include collagen and ADP (adenosine diphosphate).” left out
Platelet rich, citrated, human blood plasma (250,000 platelets/μL) was prepared and divided into 0.45 ml. aliquots for use in determining ID50 levels of the subject compounds. The aliquots were treated with various quantities of (E)-ajoene, (Z)-ajoene, mixed (E,Z)-ajoene and mixed (E,Z)-ajoene together with prostacyclin and indomethacin. […]

The test system of the next assay is platelet aggregation. Briefly: Antithrombotic/anticoagulant activity (general statement). Particulars: for antithrombotic activity when combined with the compounds of the invention: combined with the compounds of the instant claimed invention.
Text: as §1

[3] abbreviates: COLLAGEN (2 μg/ml), read-out: ID50 (the source's name).
The mark [4] stands for this setting: COLLAGEN (1 μg/ml), (E,Z)-ajoene 70:30 together with Prostacyclin (aliquot 5), read-out: ID50 (the source's name).
[5] abbreviates: COLLAGEN (1 μg/ml), antithrombotic alone, read-out: ID50 (the source's name).

On to `C=CCSS/C=C/C[S+]([O-])CC=C` (stereo not shown) [(E)-ajoene], for which the values for the IC50 in assay [1] (setting [3]) and in assay [2] were 243 ± 90 µM and 213 µM, respectively.
As for `C=CCSSC=CC[S+]([O-])CC=C` (stereo not shown) [(E,Z)-ajoene, (E,Z)-4,5,9-trithiadodeca-1,6,11-triene 9-oxide], the IC50 in assay [1] (COLLAGEN (1 μg/ml), (E,Z)-ajoene 70:30 together with Indomethacin (aliquot 7), read-out: ID50 (the source's name)) amounted to 4.5 µM; in assay [1] (setting [4]), 2.3 µM; in assay [1] (setting [5]), 92 µM. For the same compound, the antithrombotic activity entry in the assay with platelet aggregation is recorded as “significant antithrombotic activity”.
Take `C=CCSS/C=C\C[S+]([O-])CC=C` (stereo not shown) [(Z)-ajoene]: the IC50 came to 196 ± 64 µM in assay [1] (setting [3]) and 188 ± 38 µM in assay [2].
In the case of `COc1ccc2c(c1)c(CC(=O)O)c(C)n2C(=O)c1ccc(Cl)cc1` [Indomethacin, reference compound], the IC50 in assay [1] (read-out: ID50) turned out to be 0.2 µM. Also, the “antithrombotic activity when combined with the compounds of the invention” value in the assay on platelet aggregation is given as “particularly enhanced antithrombotic activity”.
`CCCCC[C@H](O)/C=C/[C@@H]1[C@H]2C/C(=C/CCCC(=O)O)O[C@H]2C[C@H]1O` [Prostacyclin, reference compound]: the IC50 in assay [1] (setting [4]) and in assay [1] (setting [5]) was 0.001 µM throughout. Moreover, in the assay with platelet aggregation, the “antithrombotic activity when combined with the compounds of the invention” value was “particularly enhanced antithrombotic activity”.
